Assay results as given in patent US20240261418A1, “SOS1 DEGRADING AGENT AND PREPARATION METHOD THEREFOR AND APPLICATION THEREOF” (SHANGHAI LEADINGTAC PHARMACEUTICAL CO. LTD., priority 2021, published 2024).

Biological target: T1, SOS1 protein (Homo sapiens, UniProt Q07889)
T1 sequence (Q07889 1-1333): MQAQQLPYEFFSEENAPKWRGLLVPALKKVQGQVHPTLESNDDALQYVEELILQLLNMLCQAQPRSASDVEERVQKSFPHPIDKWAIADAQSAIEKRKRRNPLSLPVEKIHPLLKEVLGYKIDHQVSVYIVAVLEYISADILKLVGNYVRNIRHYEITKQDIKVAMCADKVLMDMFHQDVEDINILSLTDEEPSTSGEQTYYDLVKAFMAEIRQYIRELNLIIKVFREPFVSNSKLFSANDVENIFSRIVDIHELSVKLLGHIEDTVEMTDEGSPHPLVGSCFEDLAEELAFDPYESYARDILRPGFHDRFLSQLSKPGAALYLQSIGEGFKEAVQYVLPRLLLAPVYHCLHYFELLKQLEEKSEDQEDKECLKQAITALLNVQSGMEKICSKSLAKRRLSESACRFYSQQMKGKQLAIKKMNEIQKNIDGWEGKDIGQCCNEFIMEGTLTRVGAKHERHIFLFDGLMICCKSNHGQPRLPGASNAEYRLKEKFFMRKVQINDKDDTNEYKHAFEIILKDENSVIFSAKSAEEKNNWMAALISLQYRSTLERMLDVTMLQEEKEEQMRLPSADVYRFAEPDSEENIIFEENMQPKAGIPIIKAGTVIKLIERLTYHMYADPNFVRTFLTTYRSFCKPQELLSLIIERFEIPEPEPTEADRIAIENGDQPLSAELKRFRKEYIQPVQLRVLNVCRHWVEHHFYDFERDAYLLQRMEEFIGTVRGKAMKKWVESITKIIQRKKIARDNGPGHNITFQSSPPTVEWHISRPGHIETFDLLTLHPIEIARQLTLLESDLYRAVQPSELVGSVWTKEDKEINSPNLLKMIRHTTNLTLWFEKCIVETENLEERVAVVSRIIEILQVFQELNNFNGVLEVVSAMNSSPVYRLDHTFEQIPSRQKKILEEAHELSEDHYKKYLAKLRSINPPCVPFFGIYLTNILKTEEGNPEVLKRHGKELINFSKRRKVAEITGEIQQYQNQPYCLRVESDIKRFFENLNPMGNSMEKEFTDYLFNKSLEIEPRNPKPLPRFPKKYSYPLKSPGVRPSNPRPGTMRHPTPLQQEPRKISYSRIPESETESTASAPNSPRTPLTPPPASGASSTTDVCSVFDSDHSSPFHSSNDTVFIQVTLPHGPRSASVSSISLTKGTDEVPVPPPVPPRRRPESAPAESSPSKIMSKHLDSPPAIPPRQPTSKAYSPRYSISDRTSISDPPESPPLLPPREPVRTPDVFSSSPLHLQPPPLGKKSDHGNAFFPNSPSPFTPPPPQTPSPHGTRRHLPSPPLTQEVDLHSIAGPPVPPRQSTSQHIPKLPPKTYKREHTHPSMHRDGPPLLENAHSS
Test: SOS1 degradation assay (Western blot) in A-427 cells
Assay type: cell-based
Set-up: host or cells: NCI-H358, A-427, SW-620, DLD-1 (human cancer cell lines)
Settings: A-427 (KRAS G12D), 24 h; for DC50: read-out: A427 (G12D) DC50; for Dmax: read-out: A427 (G12D) Dmax
Procedure: Test Example 2: SOS1 Degradation Assay
The degradation of SOS1 by the compounds was investigated on KRAS G12C mutant human non-small cell lung cancer cells NCI-H358 (ATCC or Stem Cell Bank, Chinese Academy of Sciences), KRAS G12D mutant human lung cancer cells A-427 (ATCC), KRAS G12V mutant human colorectal adenocarcinoma cells SW-620 (ATCC), and KRAS G13D mutant human colorectal adenocarcinoma epithelial cells DLD-1 (ATCC). The specific procedures were as follows:
0.95 mL of cells were seeded into each well of a 24-well cell culture plate to achieve a cell density of 5×10^5 cells/well; the cell plate was incubated in an incubator at 37° C. with 5% CO2 overnight. Then 50 μL of the compound solution after dilution was added to each of the wells with the corresponding cells, so that the final concentration of the compound was in a range of 0.03-3000 nM. The final concentration of DMSO was 0.25%.
After dosing, the cell plate was incubated in an incubator at 37° C. with 5% CO2 for 24 h. The cell culture medium in the 24-well plate was removed, and the plate was washed twice with 1×PBS. 180 μL of RIPA (strong) lysis buffer (Beyotime, P0013B) supplemented with 1 mM phenylmethylsulfonyl fluoride, a protease inhibitor mixture (Beyotime, P1008), and a protease phosphatase inhibitor mixture (Beyotime, P1045) was added to lyse adherent NCI-H358 cells at the bottom of the cell culture plate. After the plate was left to stand on ice for 30 min, the protein lysate in each well was transferred to a 1.5 mL centrifuge tube and centrifuged at 15000 g for 20 min at 4° C. […] The concentration of total protein in the cell lysate supernatant was determined using the BCA Protein Quantification Kit (Tiangen, PA115-02). […]
The concentration of total protein in the cell lysate was determined by BCA. […] After the blocking, the PVDF membrane was incubated with an SOS1 primary antibody (Abcam, ab140621) at 4° C. overnight, washed with a TBST buffer (2.4 g of Tris, 8.8 g of NaCl, 1.5 mL of Tween 20, with pH adjusted to 7.4, with the volume brought to 1 L) for 30 min (10 min/time), incubated with a secondary antibody (Abcam, ab205718) at room temperature for 2 h, washed with a TBST buffer for 30 min (10 min/time), and finally incubated with Clarity Western ECL Substrate (BIO-RAD, 170-5061) for 5 min for luminescence and color development, and a chemiluminescence imaging system (Clinx, ChemiScope 6200 Touch) was used for color development and protein mapping. […] The gray correction value for each sample was calculated by the formula: gray correction value=(gray value of target protein/gray value of corresponding internal reference)×103. Then the degradation rate was calculated by comparing the gray correction value with the gray correction value of the control group. […]

DC50 | Dmax | Structure (SMILES)
≤ 50 nM | 80 to 100% | COc1cc2nc(C)nc(N[C@H](C)c3cc(-c4c(Cl)cccc4CN(C)C)cs3)c2cc1[C@H]1CC[C@H](C(=O)N2CCN(CC3CCC4(CC3)CCN(C(=O)c3ccc(Cl)c(N5CCC(=O)NC5=O)c3)CC4)CC2)CC1 [Example 1, 1-(2-chloro-5-(9-((4-((1R,4R)-4-(4-(((R)-1-(4-(2-chloro-6-((dimethylamino)methyl)phenyl)thien-2-yl)ethyl)amino)-7-methoxy-2-methylquinazolin-6-yl)cyclohexane-1-carbonyl)piperazin-1-yl)methyl)-3-azaspiro[5.5]undecane-3-carbonyl)phenyl)dihydropyrimidine-2,4(1H,3H)-dione]
≤ 50 nM | 50 to 80% | COc1cc2nc(C)nc(N[C@H](C)c3cc(-c4c(Cl)cccc4CN(C)C)cs3)c2cc1[C@H]1CC[C@H](C(=O)N2CCC(CCOCC3CCN(C(=O)c4ccc(Cl)c(N5CCC(=O)NC5=O)c4)CC3)CC2)CC1 [Example 5, 1-(2-chloro-5-(4-((2-(1-((1R,4R)-4-(4-(((R)-1-(4-(2-chloro-6-((dimethylamino)methyl)phenyl)thien-2-yl)ethyl)amino)-7-methoxy-2-methylquinazolin-6-yl)cyclohexane-1-carbonyl)piperidin-4-yl)ethoxy)methyl)piperidine-1-carbonyl)phenyl)dihydropyrimidine-2,4(1H,3H)-dione]
